Results on 86 molecules are retold here after a melting point compilation (Tetko et al.; mined from patent text by program, amines drawn as free bases though some values may be those of a salt).

`Cc1nc(C)c2c(n1)N(Cc1ccc(-c3ccccc3-c3nnnn3C(c3ccccc3)(c3ccccc3)c3ccccc3)cc1)C(=O)CC2`: the melting point (as a rule, the temperature of the solid-liquid transition) fell in the range of 160 to 161 °C.

Turning to `CC(=O)N(C)c1cccc2c1nc(-c1c(F)cccc1F)n2Cc1c(F)cccc1F`, the melting point was 155 to 156 °C.

Molecule `CCOC(=O)N1CCc2[nH]cc3c(=O)n(-c4ccc(Cl)cc4)nc-3c2C1` returned a melting point of 357 to 359 °C.

Regarding `Cc1cccc(Cc2ccc(-c3cnn4c(O)ncnc34)cc2C)c1`, the melting point lay within 259 to 262 °C.

With `CCCn1c(COCc2ccc(OC)cc2)nc(C(C)C)c1Sc1cc(Cl)cc(Cl)c1`, the melting point was in the range of 104 to 107 °C.

Take `Nc1nc(-c2ccc(CCN3CCN(c4cccc(C(F)(F)F)c4)CC3)cc2)cs1`: the melting point fell in the range of 274 to 277 °C.

`N=C(CCCSc1nccc(NC(N)=NCC(F)(F)F)n1)NC(N)=O`: the melting point was in the range of 112 to 115 °C.

For `CCN(CC)Cc1nc(-c2ncn3c2CN(C)C(=O)c2ccccc2-3)no1`, the melting point lay in the range of 153 to 154 °C.

`O=C(OCc1ccccc1)C1NN=C(c2ccc(C(F)(F)F)cc2)S1` (stereo unspecified) gave a melting point of 99 to 100 °C.

Molecule `CC(=O)CCc1ccc(-c2ccccc2)cc1` registered a melting point of 76 to 77 °C.

In turn, `CCc1nc(N)nc(N)c1N1CCN(c2ccc(C#N)cc2)CC1` had a melting point above 310 °C.

The molecule `COc1ccc(CNC(=S)NNC(=O)C(N)=O)cc1` registered a melting point of 185 to 190 °C.

Consider `COC(=O)C1CCC(c2csc(NC(=N)N)n2)C1` (stereo unspecified), for which the melting point is 124 to 126 °C.

The molecule `COc1cc(-c2cc(=O)c3c(OC)c(OC)c(OC)c(OC)c3o2)ccc1OCc1ccccc1` came in with a melting point of 109 to 111 °C.

On to `O=C(CSc1nc[nH]n1)NC/C=C\COc1cc(CN2CCCCC2)ccn1`, for which the melting point was 65 to 67 °C.

For the molecule `COCC1CN(c2c(F)cc3c(=O)c(C(=O)O)cn([C@@H]4C[C@@H]4F)c3c2OC)CCN1` (stereo partly specified), the melting point lay in the range of 92 to 95 °C.

`COc1ccc(C2C(C(=O)/C=C/c3ccc(OCc4ccccc4)c(OC)c3)C(=O)CC(c3ccc(OCc4ccccc4)cc3)C2[N+](=O)[O-])cc1` (stereo unspecified) displayed a melting point of 76 to 78 °C.

`CC(C)(C)OC(=O)Nc1ccc(C#Cc2ccccc2Cl)cc1[N+](=O)[O-]` yielded a melting point of 152 to 155 °C.

Molecule `C=CCn1nc(-c2ccc(O)cc2O)c2cccc(C(F)(F)F)c21` came in with a melting point of 114 to 115 °C.

In turn, `NS(=O)(=O)c1cc2c(cc1Cl)NC(CCCCCO)NS2(=O)=O` (stereo unspecified) registered a melting point of 190 °C.

For the molecule `Cc1ccc(Oc2ccc(-c3nnc(N)o3)cc2)c(O)c1`, the melting point lay within 181 to 183 °C.

In the case of `CC(N/C(C#N)=C(\N)C#N)c1ccc(Cl)cc1` (stereo unspecified), the melting point is 145 to 146 °C.

For `N#Cc1ccc(C(=O)N2CCc3c(n(Cc4cccc(C#N)c4)c4ccccc34)C2)cc1`, the melting point is 178 to 180 °C.

For `COc1cc(C(=O)NCC2NC(C)Cc3ccccc32)cc(OC)c1OC` (stereo unspecified), the melting point is 162 to 164 °C.

`ON=C(CCC(CN1CCN(c2ccccn2)CC1)C(=NO)c1ccccc1)c1ccccc1` (stereo unspecified) returned a melting point of 75 to 78 °C.

`O=C(Nc1ccccc1)OCCc1ccc2c(c1)C(=O)c1ccccc1CO2`: the melting point was in the range of 98 to 99 °C.

Turning to `CN(C)CC1(C2(O)CCCCC2)Cc2cc3c(cc21)N(S(C)(=O)=O)CC3` (stereo unspecified), the melting point lay within 156 to 158 °C.

In turn, `CCCCC/C(=C\c1ccccc1)CNc1cccc(-c2ccnc3c(C(=O)c4cccs4)cnn23)c1` showed a melting point of 110 to 112 °C.

`CCOC(=O)CCCNC(=O)Cn1c(-c2ccc(Cl)cc2)nc2cccnc21` returned a melting point of 169 to 171 °C.

Regarding `CC(=O)Oc1cc2c(c3ccccc13)N(C(C)=O)c1ccccc1S2`, the melting point was in the range of 141 to 142 °C.

`COc1ccc(N2C(=O)C(N=[N+]=[N-])C2c2ccc(C(=O)O)cc2)cc1` (stereo unspecified) registered a melting point of 190 °C.

Consider `O=C(O)C1=CN(C2CC2)C(c2ccc3c(c2)OCO3)CC1=O` (stereo unspecified), for which the melting point was 122 to 124 °C.

The molecule `O=C(O)c1cccc(-c2ccc(OC[C@H](O)CCc3cccnc3)cc2)c1` returned a melting point of 165 to 168 °C.

`Cc1oc(-c2ccco2)nc1COc1ccc(COc2nn(Cc3ccc(OCc4nc(-c5ccco5)oc4C)cc3)cc2CO)cc1`: the melting point lay in the range of 80 to 81 °C.

`COC(Nc1ccccc1)(OC)C1(Br)C=CN=C(C(=O)c2ccccc2)C1` (stereo unspecified) registered a melting point of 189 to 190 °C.

For the molecule `OCc1cccc(/C=C/c2nc3cc(F)ccc3s2)n1`, the melting point lay within 179 to 181 °C.

Turning to `Cc1nnc(NCCN2CCN(c3ncccn3)CC2)c2cc3ccccn3c12`, the melting point fell in the range of 280 to 283 °C.

On to `CCCCCCCCNC(=O)N1CCC(Oc2ccc(CCNC[C@H](O)COc3ccc(O)cc3)cc2)CC1`, for which the melting point lay within 79 to 81 °C.

`Cc1ccc(C=NNc2ncnc3ccccc23)cc1` yielded a melting point of 211 to 214 °C.

As to `COC(=O)c1cc(C2CO2)cc([N+](=O)[O-])c1` (stereo unspecified), the melting point lay in the range of 59 to 60 °C.

Turning to `CNC(=O)N1C(=O)CC(c2ccc(OC)c(OC3CCCC3)c2)N1C` (stereo unspecified), the melting point was 65 to 68 °C.

For the molecule `CC(C)(C)c1cc(NC(=O)NNC(=O)c2ccc([N+](=O)[O-])cc2)cc(C(C)(C)C)c1O`, the melting point was in the range of 163 to 164 °C.

Consider `COc1ccc(-c2sc3c(c2CBr)c(=O)c(C(C)=O)cn3Cc2ccccc2F)cc1`, for which the melting point is 226 to 228 °C.

In turn, `CS(=O)(=O)c1ccc(-c2cnn(CC(F)(F)F)c(=O)c2Nc2cccc(F)c2)cc1` returned a melting point of 156 to 158 °C.

Molecule `Cc1ccc(Cc2cnc(NCCCCNc3ccccn3)[nH]c2=O)cn1` had a melting point of 184 °C.

On to `Nc1ncc(Cc2ccc3ccccc3c2)c(N)n1`, for which the melting point is 231 to 233 °C.

The molecule `O=C(O)c1cc(=O)c2cc3[nH]c(=O)oc3cc2[nH]1` yielded a melting point above 300 °C.

Molecule `COc1c(N2CCCC2)c(F)cc2c(=O)c(C(=O)O)cn(C3CC3)c12` yielded a melting point of 257 to 258 °C.

As to `Nc1ccccc1NS(=O)(=O)c1cc(C(=O)O)cc(NCc2ccco2)c1Oc1ccccc1`, the melting point was in the range of 105 to 110 °C.

As for `COc1ccc2cc(C(C)C(=O)NCC3(C)CCC4C(=C(C)C(C)=CC4(C)O)O3)ccc2c1` (stereo unspecified), the melting point is 67 to 70 °C.

Turning to `COc1cc(OC)nc(Sc2[nH]nc(C)c2[N+](=O)[O-])n1`, the melting point fell in the range of 175 to 176 °C.

`COCC(OC(C)=O)C1CC(=O)C2(C)CCC3C(CCC4=CC(=O)C=C(C)C43C)C12` (stereo unspecified): the melting point is 184 to 185 °C.

On to `O=c1nc(-c2cccc(Sc3ncccn3)n2)sc2ccccc12`, for which the melting point was 245 to 246 °C.

Regarding `CCCC(NS(=O)(=O)c1ccc(NC(C)=O)cc1)P(=O)(Oc1ccccc1)Oc1ccccc1` (stereo unspecified), the melting point is 183 to 186 °C.

Regarding `Cc1ccccc1C(CCC(=O)O)Oc1cc(OCc2cccnc2)ccc1C(=O)c1ccccc1` (stereo unspecified), the melting point was in the range of 185 to 186 °C.

Molecule `Nc1cccc(C(=O)c2cccc3ccccc23)c1O` came in with a melting point of 211 °C.

Take `CC(=O)OC1CSC(Oc2cnccc2-c2cccnc2)C(OC(C)=O)C1OC(C)=O` (stereo unspecified): the melting point came out at 159 °C.

`O=C(O)[C@@H]1CCC(=O)N1Cc1ccccc1`: the melting point lay within 91 to 93 °C.

As for `COc1ccc2c(c1)C=C(/C=C/C=C/C=C/C(=O)O)C(C)(C)O2`, the melting point is 154 to 156 °C.

In turn, `O=c1oc2cc(O)ccc2c2c1CCCCC2` registered a melting point of 189 to 190 °C.

Take `CNC[C@@H]1c2ccccc2Oc2ccc(Cl)cc2[C@H]1C(=O)O` (relative stereo): the melting point came out at 154 °C.

Molecule `COc1cc(Nc2ncc3c(n2)C(C)(c2ccccc2)CCC3)ccc1-n1cnc(C)c1` (stereo unspecified) returned a melting point of 207 to 209 °C.

Molecule `CCOC(=O)CCc1ccc(OCCOC)cc1OCc1ccccc1` yielded a melting point of 38 to 39 °C.

On to `CC(=O)OCCc1ccc(-c2ccc(=O)[nH]n2)cc1`, for which the melting point came out at 186 °C.

For the molecule `CCOC(=O)c1cnc2scnn2c1=O`, the melting point was in the range of 228 to 230 °C.

`CC(=O)NC1CCC2=C(CC1)C(=O)C(=CC(=O)O)C=C2` (stereo unspecified): the melting point is 240 to 243 °C.

Turning to `Brc1ccc(-n2ccc3cc(OCc4ccccc4)ccc32)cc1`, the melting point worked out at 118 °C.

In turn, `O=C1CCC(N2Cc3c(OCc4ccc(CN5CCOCC5)c(Cl)c4)cccc3C2=O)C(=O)N1` (stereo unspecified) yielded a melting point of 240 to 242 °C.

In the case of `CCC1(CC)OC(c2ccc(S(C)(=O)=O)cc2)=C(c2ccccc2)C1=O`, the melting point was in the range of 139 to 140 °C.

The molecule `CC(C)(C)OC(=O)N1CCc2c(/C=C/[N+](=O)[O-])c3ccccc3n2CC1` showed a melting point of 227 to 230 °C.

The molecule `CCOP(=O)(OCC)C(Nc1cnccn1)P(=O)(OCC)OCC` displayed a melting point of 56 to 59 °C.

For the molecule `Cc1oc(-c2ccccc2)nc1COc1cc(COc2ccccc2CC(=O)O)on1`, the melting point fell in the range of 152 to 153 °C.

`COCCNC(=O)C(NC(=O)OCc1ccccc1)c1ccc2c(c1)CCO2` (stereo unspecified) showed a melting point of 90 to 110 °C.

The molecule `COc1cn(-c2ccc(N(N)C(=O)OC(C)(C)C)cc2F)nc(-c2ccnn2-c2ccccc2)c1=O` had a melting point of 163 to 165 °C.

Molecule `CCN(CC)C(=O)c1c(C(=O)OC)ccc(F)c1[Si](C)(C)C` displayed a melting point of 46 °C.

`COc1c(C)cccc1C(=O)O` gave a melting point of 70 to 75 °C.

In turn, `CC(=O)Nc1ccc(O[C@@H]2CNC[C@H]2O)cc1` (relative stereo) registered a melting point of 200 °C.

Regarding `Cc1ccc(NC(=O)N2C(=S)C3(CCCCC3)NC23CCCCC3)cc1`, the melting point fell in the range of 127 to 129 °C.

Consider `CC(=O)c1cc(Br)no1`, for which the melting point fell in the range of 65 to 66 °C.

For `Cc1[nH]cnc1Cc1cccc(CO)c1O`, the melting point lay within 126 to 130 °C.

As to `Cc1ccc(S(=O)(=O)n2ccc3cc(F)ccc32)cc1`, the melting point lay in the range of 106 to 108 °C.

The molecule `Cc1ccccc1-n1nnc2cnc3ccccc3c21` displayed a melting point of 140 to 142 °C.

In turn, `COc1ccc(N(C(=O)CN2C(=O)C(Cc3n[nH]c4ncccc34)C(=O)N(c3ccccc3)c3ccccc32)C(C)C)cc1` (stereo unspecified) yielded a melting point of 156 to 158 °C.

Take `CC(=O)N1CCC(C)(C)c2cccc(CCCN3CCN(c4nsc5ccccc45)CC3)c21`: the melting point was determined as 109 °C.

Molecule `CC1=CCC(O)(C(C)(C)Sc2ccccc2)CC1` (stereo unspecified) showed a melting point of 73 to 74 °C.

With `CCC1c2cccn2-c2ccc(Cl)cc2N1C(=O)c1ccc(O)cc1O` (stereo unspecified), the melting point fell in the range of 198 to 201 °C.
